Columns and labels:
[1] = molecular target: p300 HAT domain (residues 1287-1666) (Homo sapiens (Human), UniProt Q09472); assay: p300 HAT SPA assay (scintillation proximity assay, acetylation of biotinylated H3(1-21) peptide); type: biochemical; details: p300 HAT domain; average of at least 2 replicate titrations; read-out: P300 HAT SPA IC50
How it was run: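 Scintillation proximity readout of acetylated biotin-H3(1-21) captured on streptavidin plates after 1.5 hr at RT; enzyme was Ni2+/anion-exchange-purified HAT domain in 20 mM Hepes pH 7.5. Inhibitor IC50s calculated from the data.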

[2] = system: acetylation of chromatin at H3K18 (catalyzed by p300 and CBP) in HCT-116 cells; assay: H3K18Ac MSD cellular assay; type: cell-based; details: 2 hr treatment, average of at least 2 replicate titrations
How it was run: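 Cellular H3K18 acetylation quantified by electrochemiluminescent MSD readout, lysates captured on anti-total-histone plates and probed with anti-H3K18ac plus Sulfo-Tag secondary. Before lysis, HCT-116 cells in RPMI/10% FBS, seeded the prior night, were exposed to compounds for 2 h at 37 °C.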

[3] = molecular target: full length p300 (Homo sapiens (Human), UniProt Q09472); assay: full length p300 SPA assay; type: biochemical; details: average of at least 2 replicate titrations, read-out: FL P300 IC50
Sequence of full length p300 (Q09472 whole entry): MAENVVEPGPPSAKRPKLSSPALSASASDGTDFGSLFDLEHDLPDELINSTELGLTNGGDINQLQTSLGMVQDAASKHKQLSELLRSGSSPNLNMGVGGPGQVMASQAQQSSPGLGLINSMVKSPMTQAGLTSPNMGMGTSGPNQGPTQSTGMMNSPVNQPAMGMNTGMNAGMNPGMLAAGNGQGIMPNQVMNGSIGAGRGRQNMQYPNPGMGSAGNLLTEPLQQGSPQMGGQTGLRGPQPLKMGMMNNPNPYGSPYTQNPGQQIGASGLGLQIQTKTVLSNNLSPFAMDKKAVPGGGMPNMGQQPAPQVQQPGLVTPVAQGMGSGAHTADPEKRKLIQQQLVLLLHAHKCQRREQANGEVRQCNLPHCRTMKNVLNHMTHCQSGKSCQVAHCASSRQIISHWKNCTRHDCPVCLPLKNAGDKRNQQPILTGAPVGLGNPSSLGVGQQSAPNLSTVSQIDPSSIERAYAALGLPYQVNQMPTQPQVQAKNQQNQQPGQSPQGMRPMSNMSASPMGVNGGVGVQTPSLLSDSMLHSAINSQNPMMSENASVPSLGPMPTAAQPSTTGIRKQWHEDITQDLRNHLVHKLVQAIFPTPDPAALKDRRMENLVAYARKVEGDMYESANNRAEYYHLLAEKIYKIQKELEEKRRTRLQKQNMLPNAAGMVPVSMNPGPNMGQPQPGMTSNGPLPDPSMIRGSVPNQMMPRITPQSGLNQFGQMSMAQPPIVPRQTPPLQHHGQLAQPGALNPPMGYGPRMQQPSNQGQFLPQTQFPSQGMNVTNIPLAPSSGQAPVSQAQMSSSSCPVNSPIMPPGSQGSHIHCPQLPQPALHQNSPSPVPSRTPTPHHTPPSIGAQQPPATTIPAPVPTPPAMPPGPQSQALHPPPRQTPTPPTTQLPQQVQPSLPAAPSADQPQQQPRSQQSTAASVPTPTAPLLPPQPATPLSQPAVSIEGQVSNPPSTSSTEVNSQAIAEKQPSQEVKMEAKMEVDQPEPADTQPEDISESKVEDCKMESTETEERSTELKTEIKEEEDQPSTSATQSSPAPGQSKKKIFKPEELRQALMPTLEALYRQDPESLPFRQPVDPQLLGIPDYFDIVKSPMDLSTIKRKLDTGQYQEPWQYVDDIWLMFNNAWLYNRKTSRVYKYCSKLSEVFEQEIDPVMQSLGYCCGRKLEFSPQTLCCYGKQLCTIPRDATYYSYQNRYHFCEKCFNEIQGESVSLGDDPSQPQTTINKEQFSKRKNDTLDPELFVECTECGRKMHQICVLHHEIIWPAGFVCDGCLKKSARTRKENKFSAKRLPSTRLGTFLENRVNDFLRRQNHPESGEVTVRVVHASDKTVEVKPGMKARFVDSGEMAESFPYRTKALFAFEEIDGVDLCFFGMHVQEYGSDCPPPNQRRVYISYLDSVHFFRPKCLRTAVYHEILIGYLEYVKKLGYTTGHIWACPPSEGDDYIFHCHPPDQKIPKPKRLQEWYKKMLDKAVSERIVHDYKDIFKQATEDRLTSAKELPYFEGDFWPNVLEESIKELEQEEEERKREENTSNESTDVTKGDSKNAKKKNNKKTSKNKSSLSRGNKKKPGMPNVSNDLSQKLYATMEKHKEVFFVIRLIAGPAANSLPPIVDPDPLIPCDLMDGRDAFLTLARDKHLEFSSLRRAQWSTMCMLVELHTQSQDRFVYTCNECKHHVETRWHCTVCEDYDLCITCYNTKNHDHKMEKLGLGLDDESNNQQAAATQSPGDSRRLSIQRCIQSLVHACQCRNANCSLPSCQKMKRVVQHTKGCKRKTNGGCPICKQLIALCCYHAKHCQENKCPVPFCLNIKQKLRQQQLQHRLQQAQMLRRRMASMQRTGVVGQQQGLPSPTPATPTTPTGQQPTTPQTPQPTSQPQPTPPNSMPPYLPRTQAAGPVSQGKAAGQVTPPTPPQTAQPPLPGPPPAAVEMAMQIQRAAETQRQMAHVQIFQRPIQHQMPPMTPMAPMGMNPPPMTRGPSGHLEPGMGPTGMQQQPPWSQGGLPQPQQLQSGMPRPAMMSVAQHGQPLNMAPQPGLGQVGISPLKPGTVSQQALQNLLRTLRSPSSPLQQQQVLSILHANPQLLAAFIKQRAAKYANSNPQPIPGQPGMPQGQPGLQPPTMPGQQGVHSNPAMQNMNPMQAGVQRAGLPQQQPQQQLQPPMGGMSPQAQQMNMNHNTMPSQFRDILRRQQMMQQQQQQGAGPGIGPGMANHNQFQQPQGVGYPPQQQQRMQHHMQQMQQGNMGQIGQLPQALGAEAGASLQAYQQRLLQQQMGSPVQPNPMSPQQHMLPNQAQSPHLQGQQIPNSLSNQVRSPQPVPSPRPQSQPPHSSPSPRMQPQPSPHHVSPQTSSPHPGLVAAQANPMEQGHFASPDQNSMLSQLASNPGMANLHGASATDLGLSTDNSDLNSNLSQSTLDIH
Method: Reactions were initiated with 12.5 μL 2 μM biotinylated H3(1-21) peptide (New England Peptide) and run for 1 hr at RT, then quenched with 20 μL stop solution (200 mM Tris pH 8.0, 200 mM EDTA, 2M NaCl, 160 μM anacardic acid). 35 μL of the reaction volume was transferred to a 384-well streptavidin FlashPlate (PerkinElmer) using a Bravo liquid handler (Velocity 11) and incubated for 1.5 hr at RT. Plates were aspirated, washed with 95 μL wash buffer (15 mM Tris pH 8.5, 0.069 μM Brij-35), aspirated, sealed, and scintillation counts read on a Topcount (PerkinElmer). Data were analyzed in Genedata to determine inhibitor IC50 values.
The full length p300 SPA assay was run following the same protocol as p300 HAT SPA assay, but used 6 nM purified full length p300 (purchased from Active Motif) in place of the purified p300-HAT domain.

Sequence of p300 HAT domain (residues 1287-1666) (Q09472 1287-1666): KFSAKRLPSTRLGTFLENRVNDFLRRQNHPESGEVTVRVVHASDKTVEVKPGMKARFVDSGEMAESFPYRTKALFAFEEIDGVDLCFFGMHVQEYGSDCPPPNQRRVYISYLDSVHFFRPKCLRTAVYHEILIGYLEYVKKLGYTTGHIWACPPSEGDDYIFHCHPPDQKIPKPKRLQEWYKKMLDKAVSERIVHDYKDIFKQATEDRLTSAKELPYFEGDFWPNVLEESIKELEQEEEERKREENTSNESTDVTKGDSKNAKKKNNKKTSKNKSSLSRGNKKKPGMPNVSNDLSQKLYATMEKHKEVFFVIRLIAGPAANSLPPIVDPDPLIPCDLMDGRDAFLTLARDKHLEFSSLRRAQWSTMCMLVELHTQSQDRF

| SMILES | IC50 [1] [nM] | EC50 ([2]; Homo sapiens, HCT-116, 2 h) [nM] | IC50 [3] [nM] | EC50 [2] [nM] |
| --- | --- | --- | --- | --- |
| CNC(=O)c1ccc(CCNC(C(=O)c2c[nH]c3ccccc23)c2ccccc2)cc1 (single isomer, unassigned) [134 Isomer 2] | 5160 | 1570 | 151 |  |
| CCNC(=O)c1ccc2c(C(=O)[C@@H](NCCc3ccc(C#N)cc3)c3ccccc3)c[nH]c2c1 (single isomer, unassigned) [146 Isomer 2] | 26 |  | 14 | 36.6 |
| CN(C)C(=O)c1ccc2c(C(=O)C(NCCc3ccc(Cl)cc3Cl)c3ccccc3)c[nH]c2c1 (single isomer, unassigned) [152 Isomer 2] | 1260 | 327 | 28.7 |  |
| N#Cc1ccc(CCNC(C(=O)c2c[nH]c3cc(C(=O)O)ccc23)c2ccccc2)cc1 (single isomer, unassigned) [155 Isomer 1] | 2240 | 16700 | 77.3 |  |
| CNC(=O)c1ccc2c(C(=O)C(NCCc3ccc(C#N)cc3)c3ccccc3)c[nH]c2c1 (single isomer, unassigned) [156 Isomer 2] | 17 | 46.6 | < 2 |  |
